Tests used:
Alternaria solani = experiment: Activity against early blight of tomato caused by Alternaria solani; format: in vivo; details: 250 ppm; tomato "Goldene Königin"; after 5 days; untreated 90% infected
Method: (§1) The active compounds were prepared separately as a stock solution with 25 mg of active compound which was made up to 10 ml with a mixture of acetone and/or DMSO and the emulsifier Uniperol® EL (wetting agent having emulsifying and dispersing action based on ethoxylated alkylphenols) in a volume ratio solvent/emulsifier of 99 to 1. The solution was then made up to 100 ml with water. This stock solution was diluted to the active compound concentration stated below using the solvent/emulsifier/water mixture described.
Activity Against Early Blight of Tomato Caused by Alternaria solani
Leaves of potted plants of the cultivar “Goldene Königin” were sprayed to runoff point with an aqueous suspension having the concentration of active compounds stated below. The next day, the leaves were inoculated with an aqueous spore suspension of Alternaria solani in 2% biomalt solution having a density of 0.17×10^6 spores/ml. The plants were then placed in a water-vapor-saturated chamber at temperatures of between 20 and 22° C. After 5 days, the disease on the leaves of the untreated, but infected control plants had developed to such an extent that the infection could be determined visually in %.

Pyrenophora teres = experiment: Activity against net blotch of barley caused by Pyrenophora teres, 1 day protective application; format: in vivo, Pyrenophora [syn. Drechslera] teres; details: 250 ppm; barley "Hanna"; after 6 days; untreated 90% infected
Method: The active compounds were prepared separately as a stock solution with 25 mg of active compound which was made up to 10 ml with a mixture of acetone and/or DMSO and the emulsifier Uniperol® EL (wetting agent having emulsifying and dispersing action based on ethoxylated alkylphenols) in a volume ratio solvent/emulsifier of 99 to 1. The solution was then made up to 100 ml with water. This stock solution was diluted to the active compound concentration stated below using the solvent/emulsifier/water mixture described. Activity Against Net Blotch of Barley Caused by Pyrenophora teres, 1 Day Protective Application Leaves of potted barley seedlings of the cultivar “Hanna” were sprayed to runoff point with an aqueous suspension having the concentration of active compounds stated below. 24 hours after the spray coating had dried on, the test plants were inoculated with an aqueous spore suspension of Pyrenophora [syn. Drechslera] teres, the net blotch pathogen. The test plants were then placed in a greenhouse at temperatures between 20 and 24° C. and 95 to 100% relative atmospheric humidity. After 6 days, the extent of the development of the disease was determined visually in % infection of the entire leaf area.

Botrytis cinerea = experiment: Activity against gray mold on bell pepper leaves caused by Botrytis cinerea, protective application; format: in vivo; details: 250 ppm; bell pepper "Neusiedler Ideal Elite"; after 5 days; untreated 90% infected
Method: as §1
Activity Against Gray Mold on Bell Pepper Leaves Caused by Botrytis cinerea, Protective Application
Bell pepper seedlings of the cultivar “Neusiedler Ideal Elite” were, after 2-3 leaves were well-developed, sprayed to runoff point with an aqueous suspension having the concentration of active compound stated below. The next day, the treated plants were inoculated with a spore suspension of Botrytis cinerea which contained 1.7×10^6 spores/ml in a 2% strength aqueous biomalt solution. The test plants were then placed in a dark climatized chamber at 22-24° C. and high atmospheric humidity. After 5 days, the extent of the fungal infection on the leaves could be determined visually in %.

Row | Structure (SMILES) | infection of treated leaf areas (Alternaria solani) | infection of treated leaf areas (Pyrenophora teres) | melting point [°C] | infection of treated leaf areas (Botrytis cinerea)
1 | CC(C)Oc1nc(-n2cccn2)nc(Cl)c1-c1c(F)cc(F)cc1F [1), 4-Chloro-6-isopropoxy-2-(pyrazol-1-yl)-5-(2,4,6-trifluorophenyl)pyrimidine] | only little infection | only little infection | 106 to 107 | only little infection
2 | CON=C(N)c1nc(Cl)c(-c2c(F)cc(F)cc2F)c(OC(C)C)n1 [3), O-Methyl (4-chloro-6-isopropoxy-5-(2,4,6-trifluorophenyl)pyrimidin-2-yl)carbamidoxime] | only little infection | only little infection |  | only little infection
3 | CC(C)(C)Oc1nc(-c2ccccn2)nc(Cl)c1-c1c(F)cccc1Cl [4)] | only little infection | only little infection |  | only little infection
4 | CC(C)Oc1nc(C#N)nc(Cl)c1-c1c(F)cc(F)cc1F [5), 4-Chloro-2-cyano-6-isopropoxy-5-(2,4,6-trifluorophenyl)pyrimidine] |  |  | 32 | 

— patent publication US20080132522A1, “2-Substituted Pyrimidines, Method for Their Production and Their Use for Controlling Pathogenic Fungi” (BASF Aktiengesellschaft, priority 2004, published 2008)
